ChEMBL document CHEMBL4828731, “Synthesis, structure-activity relationships and molecular docking studies of phenyldiazenyl sulfonamides as aromatase inhibitors” (Eur J Med Chem, 2021)
Active and inactive are the calls of the source. The calls are words filed in the database; no cut-off is given here.

What was measured:
Aromatase [1] = target: T1, Aromatase (Homo sapiens, UniProt P11511); assay: Inhibition of human aromatase assessed as reduction in fluorescence intensity using 7-methoxy-4-trifluoromethyl coumarin as a substrate at 1 uM by fluorimetric assay relative to control
T1 sequence (P11511 whole entry): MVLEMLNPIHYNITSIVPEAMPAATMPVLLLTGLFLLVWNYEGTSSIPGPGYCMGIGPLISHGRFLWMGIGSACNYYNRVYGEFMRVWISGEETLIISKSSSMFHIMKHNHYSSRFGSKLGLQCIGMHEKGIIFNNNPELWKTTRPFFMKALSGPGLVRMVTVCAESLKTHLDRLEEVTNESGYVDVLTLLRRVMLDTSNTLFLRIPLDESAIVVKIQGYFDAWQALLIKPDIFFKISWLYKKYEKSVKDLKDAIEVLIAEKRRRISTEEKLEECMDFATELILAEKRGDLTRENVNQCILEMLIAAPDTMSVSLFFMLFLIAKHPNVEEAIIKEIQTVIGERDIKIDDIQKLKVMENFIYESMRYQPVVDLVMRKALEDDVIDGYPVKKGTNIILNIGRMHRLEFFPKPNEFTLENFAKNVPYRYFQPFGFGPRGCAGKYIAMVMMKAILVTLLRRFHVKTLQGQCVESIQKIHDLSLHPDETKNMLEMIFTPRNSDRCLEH

Aromatase [2] = target: T1, Aromatase; assay: Inhibition of human aromatase in T47D measured after 24 hrs by ELISA
MCF7 [3] = assay: Cytotoxicity against human MCF7 cells assessed as reduction in cell metabolic activity at 100 uM incubated for 24 hrs by MTT assay relative to control; format: functional; design: scale not given: the % may be the effect or the level left
MCF7 [4] = assay: Cytotoxicity against human MCF7 cells assessed as release of LDH up to 250 uM measured after 24 hrs by lactate dehydrogenase assay; format: functional, cell-based; conditions: dose microM <=250, time 24.0 hrs
MCF7 [5] = assay: Cytotoxicity against human MCF7 cells assessed as reduction in cell metabolic activity incubated for 72 hrs by MTT assay; format: functional, cell-based
Aromatase [6] = target: T1, Aromatase; assay: Inhibition of human aromatase assessed as reduction in fluorescence intensity using 7-methoxy-4-trifluoromethyl coumarin as a substrate by fluorimetric assay
Aromatase [7] = target: T1, Aromatase; assay: Potency index, ratio of resveratrol IC50 to test compound IC50 for Inhibition of human aromatase assessed as reduction in fluorescence intensity using 7-methoxy-4-trifluoromethyl coumarin as a substrate by fluorimetric assay
MCF7 [8] = assay: Cytotoxicity against human MCF7 cells assessed as reduction in cell metabolic activity up to 50 uM incubated for 24 hrs by MTT assay relative to control; format: functional; design: scale not given: the % may be the effect or the level left; conditions: dose microM <=50
MCF7 [9] = assay: Cytotoxicity against human MCF7 cells assessed as reduction in cell metabolic activity up to 50 uM incubated for 48 hrs by MTT assay relative to control; format: functional; design: scale not given: the % may be the effect or the level left; conditions: dose microM <=50
MCF7 [10] = assay: Cytotoxicity against human MCF7 cells assessed as reduction in cell metabolic activity at 250 uM incubated for 72 hrs by MTT assay relative to control; format: functional; design: scale not given: the % may be the effect or the level left
HFF-1 [11] = assay: Cytotoxicity against human HFF-1 clls assessed as reduction in cell viability at 10 to 100 uM measured after 72 hrs by MTT assay; format: cell-based; conditions: hff-1, 72 h, dose 10-100 µM
[12] = Selectivity index, ratio of IC50 for cytotoxicity against human HFF-1 cells to IC50 for cytotoxicity against human MCF7 cells measured after 24 hrs by MTT assay; format: toxicity, cell-based; conditions: HFF-1 cells and MCF7 cells, read-out: Selectivity Index
MCF7 [13] = assay: Cytotoxicity against human MCF7 cells assessed as fold increase in release of LDH at 50 uM measured after 24 hrs by lactate dehydrogenase assay relative to control; format: functional
MCF7 [14] = assay: Induction of apoptosis in human MCF7 cells assessed as cells in apoptotic stage at 100 uM measured after 24 hrs by Annexin V-APC/PI staining based flow cytometry analysis (Rvb= 7.3%); format: functional
MCF7 [15] = assay: Induction of apoptosis in human MCF7 cells assessed as cells in apoptotic stage at 250 uM measured after 24 hrs by Annexin V-APC/PI staining based flow cytometry analysis (Rvb= 7.3%); format: functional
MCF7 [16] = assay: Induction of apoptosis in human MCF7 cells assessed as increase in necrotic cells at 10 to 250 uM measured after 24 hrs by Annexin V-APC/PI staining based flow cytometry analysis relative to control; format: functional, cell-based; conditions: dose 10-250 µM
MCF7 [17] = assay: Cell cycle arrest in human MCF7 cells assessed as reduction in cells in S phase measured after 72 hrs by propidium iodide staining based flow cytometry analysis; format: functional
MCF7 [18] = assay: Cell cycle arrest in human MCF7 cells assessed as increase in cells in G1 phase measured after 72 hrs by propidium iodide staining based flow cytometry analysis; format: functional
HFF-1 [19] = assay: Cytotoxicity against human HFF-1 clls assessed as reduction in cell viability at 250 uM measured after 72 hrs by MTT assay; format: cell-based; conditions: hff-1, 72 h
[20] = Selectivity index, ratio of IC50 for cytotoxicity against human HFF-1 cells to IC50 for cytotoxicity against human MCF7 cells measured after 48 hrs by MTT assay; format: toxicity, cell-based; conditions: HFF-1 cells and MCF7 cells, read-out: Selectivity Index
[21] = Selectivity index, ratio of IC50 for cytotoxicity against human HFF-1 cells to IC50 for cytotoxicity against human MCF7 cells measured after 72 hrs by MTT assay; format: toxicity, cell-based; conditions: HFF-1 cells and MCF7 cells, read-out: Selectivity Index

CC(=O)Nc1ccc(S(=O)(=O)Nc2ccc(/N=N/c3ccccc3)cc2)cc1
inhibition at 1 µM (Aromatase [1]): < 20%

CS(=O)(=O)Nc1ccc(/N=N/c2ccccc2)cc1
inhibition at 1 µM (Aromatase [1]): < 20%

CCS(=O)(=O)Nc1ccc(/N=N/c2ccccc2)cc1
inhibition at 1 µM (Aromatase [1]): < 20%

COc1cnc(NS(=O)(=O)c2ccc(N/C=C\C(=O)c3cc4ccccc4oc3=O)cc2)nc1
IC50 (Aromatase [2]): 6 µM

O=S(=O)(c1ccccc1)N(Cc1nc2ccccc2[nH]1)c1ccc(/N=N/c2ccccc2)cc1
inhibition at 1 µM (Aromatase [1]): < 20%

N#Cc1ccc(S(=O)(=O)Nc2ccc(/N=N/c3ccccc3)cc2)c(Cl)c1
inhibition at 1 µM (Aromatase [1]): < 20%

O=S(=O)(Nc1ccc(/N=N/c2ccccc2)cc1)c1ccccc1
inhibition at 1 µM (Aromatase [1]): < 20%

Oc1ccc(/C=C/c2cc(O)cc(O)c2)cc1 [RESVERATROL]
Activity (MCF7 [3]): 78.2% | Activity (MCF7 [4]): inactive | Activity (MCF7 [5]): Dose-Dependent Effect

COc1ccc(S(=O)(=O)N(Cc2nc3ccccc3[nH]2)c2ccc(/N=N/c3ccccc3)cc2)c(OC)c1
inhibition at 1 µM (Aromatase [1]): 50% | IC50 (Aromatase [6]): 5.7 µM | Ratio IC50 (Aromatase [7]): 14 | Activity (MCF7 [8]): 20% | Activity (MCF7 [4]): inactive | Activity (MCF7 [9]): 60% | Activity (MCF7 [10]): 134.2% | Activity (HFF-1 [11]): Non-Toxic | selectivity ratio at 24 h [12]: > 2.25

Cc1ccc(S(=O)(=O)Nc2ccc(/N=N/c3ccccc3)cc2)cc1[N+](=O)[O-]
inhibition at 1 µM (Aromatase [1]): < 20%

O=S(=O)(Cc1ccccc1)Nc1ccc(/N=N/c2ccccc2)cc1
inhibition at 1 µM (Aromatase [1]): < 20%

O=S(=O)(Nc1ccc(/N=N/c2ccccc2)cc1)c1ccc(Cl)s1
inhibition at 1 µM (Aromatase [1]): < 20%

O=[N+]([O-])c1cccc(S(=O)(=O)Nc2ccc(/N=N/c3ccccc3)cc2)c1
inhibition at 1 µM (Aromatase [1]): < 20%

Cc1ccc(S(=O)(=O)N(Cc2nc3ccccc3[nH]2)c2ccc(/N=N/c3ccccc3)cc2)cc1[N+](=O)[O-]
inhibition at 1 µM (Aromatase [1]): < 20%

N#Cc1ccc(S(=O)(=O)Nc2ccc(/N=N/c3ccccc3)cc2)cc1
IC50 (Aromatase [6]): 7.9 µM | Activity (MCF7 [8]): 20% | Activity (MCF7 [4]): inactive | Activity (MCF7 [9]): 60% | Activity (MCF7 [5]): Dose-Dependent Effect | Activity (HFF-1 [11]): Non-Toxic | selectivity ratio at 24 h [12]: > 1.6

COc1ccc(S(=O)(=O)Nc2ccc(/N=N/c3ccccc3)cc2)c(OC)c1
IC50 (Aromatase [6]): 1.6 µM | Ratio IC50 (Aromatase [7]): 50 | Activity (MCF7 [8]): 20% | Activity (MCF7 [3]): 47.4% | fold change (FC) (MCF7 [13]): 2.5 | Activity (MCF7 [14]): 19.7% | Activity (MCF7 [15]): 14.7% | Activity (MCF7 [16]): Active | Activity (MCF7 [9]): 60% | Activity (MCF7 [5]): Dose-Dependent Effect | Activity (MCF7 [17]): Dose-Dependent Effect | Activity (MCF7 [18]): Dose-Dependent Effect | Activity (HFF-1 [11]): Non-Toxic | Activity (HFF-1 [19]): Toxic | selectivity ratio at 24 h [12]: 2.12 | selectivity ratio at 48 h [20]: 3.19 | selectivity ratio at 72 h [21]: 3.74
